Experimental data from patent US20120115903A1, “Substituted Heteroaromatic Carboxamide and Urea Compounds as Vanilloid Receptor Ligands” (Gruenenthal GmbH, priority 2010, published 2012).

What was measured:
[1] = molecular target: T1, vanilloid receptor 1 (VR1/TRPV1 receptor) (Mus musculus, UniProt Q704Y3); assay: FLIPR Ca2+ influx assay on vanilloid receptor 1, capsaicin stimulus (mouse); assay type: cell-based; conditions: Cap = capsaicin, Ki from IC50 by Cheng-Prusoff
T1 construct: expressed in transfected cells; host or cells: CHO K1 cells (inferred: method II; method I is described for rat DRG neurons only)
T1 sequence (Q704Y3 whole entry): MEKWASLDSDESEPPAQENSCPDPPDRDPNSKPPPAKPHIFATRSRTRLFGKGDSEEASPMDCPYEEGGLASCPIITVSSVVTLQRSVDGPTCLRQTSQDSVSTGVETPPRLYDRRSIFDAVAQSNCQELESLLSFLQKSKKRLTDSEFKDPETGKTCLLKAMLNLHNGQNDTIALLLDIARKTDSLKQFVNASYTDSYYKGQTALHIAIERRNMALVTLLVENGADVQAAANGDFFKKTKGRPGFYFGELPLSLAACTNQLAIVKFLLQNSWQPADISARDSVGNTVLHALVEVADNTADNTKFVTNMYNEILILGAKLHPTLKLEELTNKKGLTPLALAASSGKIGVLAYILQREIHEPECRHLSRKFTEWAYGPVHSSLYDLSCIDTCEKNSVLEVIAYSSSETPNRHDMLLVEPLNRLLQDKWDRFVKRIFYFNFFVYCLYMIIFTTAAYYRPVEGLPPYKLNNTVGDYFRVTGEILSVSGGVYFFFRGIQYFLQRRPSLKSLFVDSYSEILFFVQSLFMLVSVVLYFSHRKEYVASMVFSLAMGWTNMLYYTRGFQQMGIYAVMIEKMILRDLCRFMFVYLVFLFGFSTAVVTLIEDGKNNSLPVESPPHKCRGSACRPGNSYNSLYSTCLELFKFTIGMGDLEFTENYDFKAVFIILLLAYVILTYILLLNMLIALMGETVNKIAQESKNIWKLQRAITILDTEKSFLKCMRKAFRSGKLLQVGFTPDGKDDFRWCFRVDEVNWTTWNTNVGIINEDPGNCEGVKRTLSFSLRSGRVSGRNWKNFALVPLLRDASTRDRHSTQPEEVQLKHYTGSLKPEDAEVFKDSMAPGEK
From the text: The agonistic or antagonistic effect of the substances to be tested on the vanilloid receptor 1 (VR1) can also be determined using the following assay. In this assay, the influx of Ca^2+ through the channel is quantified with the aid of a Ca^2+-sensitive dye (type Fluo-4, Molecular Probes Europe BV, Leiden, the Netherlands) in a fluorescent imaging plate reader (FLIPR, Molecular Devices, Sunnyvale, USA).
Chinese hamster ovary cells (CHO K1 cells, European Collection of Cell Cultures (ECACC) United Kingdom) are stably transfected with the VR1 gene. […] The Ca^2+-dependent fluorescence is measured before and after the addition of the substances to be tested (λex wavelength=488 nm, λem=540 nm). Quantification is carried out by measuring the highest fluorescence intensity (FC, fluorescence counts) over time.
The FLIPR protocol consists of 2 substance additions. […] After 5 minutes' incubation, 100 nM of capsaicin are applied and the Ca^2+ influx is also determined. […]
Starting from the percentage displacement caused by different concentrations of the compounds to be tested of general formula I, IC50 inhibitory concentrations which cause a 50-percent displacement of capsaicin were calculated. […]
The affinity of the compounds according to the invention for the vanilloid receptor 1 (VR1/TRPV1 receptor) was determined as described hereinbefore (pharmacological methods I and II respectively). […]

[2] = molecular target: T2, vanilloid receptor 1 (VR1/TRPV1 receptor) (Homo sapiens, UniProt Q8NER1); assay: FLIPR Ca2+ influx assay with CHO K1 cells transfected with the human VR1 gene, capsaicin stimulus; assay type: cell-based; conditions: Cap = capsaicin (100 nM), Ki from IC50 by Cheng-Prusoff, read-out: Ki (human being) [nM] Cap
T2 construct: expressed in transfected cells; host or cells: CHO K1 cells (ECACC), stably transfected
T2 sequence (Q8NER1 whole entry): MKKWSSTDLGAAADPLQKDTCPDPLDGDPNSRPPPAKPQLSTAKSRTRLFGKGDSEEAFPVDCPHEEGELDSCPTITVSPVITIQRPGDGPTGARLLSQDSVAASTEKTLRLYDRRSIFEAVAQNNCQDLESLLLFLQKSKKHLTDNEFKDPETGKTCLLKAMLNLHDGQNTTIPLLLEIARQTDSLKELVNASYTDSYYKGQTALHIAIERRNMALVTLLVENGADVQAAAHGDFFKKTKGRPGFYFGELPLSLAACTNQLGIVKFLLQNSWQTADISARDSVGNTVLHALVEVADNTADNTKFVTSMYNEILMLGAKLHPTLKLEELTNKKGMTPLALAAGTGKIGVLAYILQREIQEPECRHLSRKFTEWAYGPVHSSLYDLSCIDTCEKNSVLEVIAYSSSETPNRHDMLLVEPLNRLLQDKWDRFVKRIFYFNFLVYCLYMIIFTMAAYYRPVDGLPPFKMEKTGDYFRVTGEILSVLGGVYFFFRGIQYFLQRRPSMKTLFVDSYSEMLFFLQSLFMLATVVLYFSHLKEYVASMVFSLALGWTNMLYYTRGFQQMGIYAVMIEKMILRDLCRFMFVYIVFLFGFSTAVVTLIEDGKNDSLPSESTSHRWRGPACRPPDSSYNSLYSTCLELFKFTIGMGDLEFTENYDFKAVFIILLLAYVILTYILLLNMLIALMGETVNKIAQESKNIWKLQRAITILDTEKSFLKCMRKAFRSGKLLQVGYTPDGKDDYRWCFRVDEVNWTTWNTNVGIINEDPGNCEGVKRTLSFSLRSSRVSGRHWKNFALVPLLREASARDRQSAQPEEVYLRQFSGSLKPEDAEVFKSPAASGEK
Method: Furthermore, preference may be given to compounds according to the invention of general formula (I) that cause a 50 percent displacement of capsaicin, which is present at a concentration of 100 nM, in a FLIPR assay with CHO K1 cells which were transfected with the human VR1 gene at a concentration of less than 2,000 nM, preferably less than 1,000 nM, particularly preferably less than 300 nM, most particularly preferably less than 100 nM, even more preferably less than 75 nM, additionally preferably less than 50 nM, most preferably less than 10 nM. In the process, the Ca^2+ influx is quantified in the FLIPR assay with the aid of a Ca^2+-sensitive dye (type Fluo-4, Molecular Probes Europe BV, Leiden, the Netherlands) in a fluorescent imaging plate reader (FLIPR, Molecular Devices, Sunnyvale, USA), as described hereinafter. The agonistic or antagonistic effect of the substances to be tested on the vanilloid receptor 1 (VR1) can also be determined using the following assay. In this assay, the influx of Ca^2+ through the channel is quantified with the aid of a Ca^2+-sensitive dye (type Fluo-4, Molecular Probes Europe BV, Leiden, the Netherlands) in a fluorescent imaging plate reader (FLIPR, Molecular Devices, Sunnyvale, USA). Chinese hamster ovary cells (CHO K1 cells, European Collection of Cell Cultures (ECACC) United Kingdom) are stably transfected with the VR1 gene. For functional testing, these cells are plated out on poly-D-lysine-coated black 96-well plates having a clear base (BD Biosciences, Heidelberg, Germany) at a density of 25,000 cells/well. The cells are incubated overnight at 37° C. and 5% CO2 in a culture medium (Ham's F12 nutrient mixture, 10% by volume of FCS (foetal calf serum), 18 μg/ml of L-proline). The next day the cells are incubated with Fluo-4 (Fluo-4 2 μM, 0.01% by volume of Pluronic F127, Molecular Probes in HBSS (Hank's buffered saline solution), Gibco Invitrogen GmbH, Karlsruhe, Germany) for 30 minutes at 37° C. Subsequently, the plates are washed three times with HBSS buffer and after further incubation for 15 minutes at RT used for Ca^2+ measurement in a FLIPR assay. The Ca^2+-dependent fluorescence is measured before and after the addition of the substances to be tested (λex wavelength=488 nm, λem=540 nm). Quantification is carried out by measuring the highest fluorescence intensity (FC, fluorescence counts) over time. The FLIPR protocol consists of 2 substance additions. First the compounds to be tested (10 μM) are pipetted onto the cells and the Ca^2+ influx is compared with the control (capsaicin 10 μM) (% activation based on the Ca^2+ signal after the addition of 10 μM of capsaicin). After 5 minutes' incubation, 100 nM of capsaicin are applied and the Ca^2+ influx is also determined. Desensitising agonists and antagonists led to suppression of the Ca^2+ influx. The % inhibition is calculated compared to the maximum achievable inhibition with 10 μM of capsaicin. Starting from the percentage displacement caused by different concentrations of the compounds to be tested of general formula I, IC50 inhibitory concentrations which cause a 50-percent displacement of capsaicin were calculated. K, values for the test substances were obtained by conversion by means of the Cheng-Prusoff equation (Cheng, Prusoff; Biochem. Pharmacol. 22, 3099-3108, 1973). The affinity of the compounds according to the invention for the vanilloid receptor 1 (VR1/TRPV1 receptor) was determined as described hereinbefore (pharmacological methods I and II respectively). The compounds according to the invention of the above-indicated formula (I) display outstanding affinity to the VR1/TRPV1 receptor (Table 1.).

Question: With `CC(C(=O)NCc1cc(C(F)(F)F)nn1-c1cccc(Cl)c1)c1cn(C)c2ccc(O)cc12` (centres unmarked) [Example 10, N-((1-(3-chlorophenyl)-3-(trifluoromethyl)-1H-pyrazol-5-yl)methyl)-2-(5-hydroxy-1-methyl-1H-indol-3-yl)propanamide] as the molecule, how does the Ki [1] read?
Answer: Its Ki is 4.8 nM.

Question: And the Ki [2]?
Answer: The Ki was 0.4 nM.
